Source: the NIST ThermoML archive (doi:10.1021/je060313v)
Numbers after ± are expanded uncertainties.

Key:
[1] = refractive index (Na D-line) (dimensionless); details: 101.33 kPa, Liquid, Standard Abbe refractometry
[2] = for speed of sound / mass density / viscosity: 101.33 kPa, Liquid; for speed of sound: Sing-around technique in a fixed-path interferometer; for mass density: Vibrating tube method; for surface tension liquid-gas: Drop weight; for viscosity: Capillary tube (Ostwald / Ubbelohde) method

CCCCn1cc[n+](C)c1.COS(=O)(=O)[O-] [1-butyl-3-methylimidazolium methyl sulfate]
Details | mass density, [2] [kg/m3] | refractive index, [1] | speed of sound, [2] [m/s] | surface tension liquid-gas, [2] [mN/m] | viscosity, [2] [mPa·s]
278.15 K | 1225.84 ± 8.2 | – | 1708.3 ± 5.2 | – | –
283.15 K | 1222.44 ± 8.1 | 1.48351 ± 0.0011 | 1695.8 ± 5.2 | 45.9 ± 1.2 | –
288.15 K | 1219.03 ± 8.1 | 1.48213 ± 0.0011 | 1683.4 ± 5.2 | 45 ± 1.1 | –
293.15 K | 1215.62 ± 8 | 1.48076 ± 0.0011 | 1670.9 ± 5.2 | 44.1 ± 1.1 | 288.99 ± 14
298.15 K | 1212.22 ± 8 | 1.47942 ± 0.0011 | 1658.4 ± 5.2 | 43.3 ± 1.1 | 213.19 ± 9
303.15 K | 1208.81 ± 8 | 1.47805 ± 0.0011 | 1646 ± 5.2 | 42.8 ± 1.1 | 160.93 ± 6
308.15 K | 1205.41 ± 7.9 | 1.47671 ± 0.0011 | 1633.5 ± 5.2 | 42.3 ± 1.1 | 123.73 ± 4.2
313.15 K | 1202.04 ± 7.9 | 1.47536 ± 0.0011 | 1621.1 ± 5.2 | 41.8 ± 1.1 | 96.83 ± 3
318.15 K | 1198.66 ± 7.8 | 1.474 ± 0.0011 | 1608.6 ± 5.2 | – | 77.08 ± 2.2
323.15 K | 1195.34 ± 7.8 | 1.47266 ± 0.0011 | 1596.1 ± 5.2 | – | 62.22 ± 1.6
328.15 K | 1192.02 ± 7.7 | 1.47132 ± 0.0011 | 1583.7 ± 5.2 | – | –
333.15 K | 1188.73 ± 7.7 | 1.47 ± 0.0011 | 1571.2 ± 5.2 | – | 42.24 ± 1.1
338.15 K | 1185.45 ± 7.6 | 1.46864 ± 0.0011 | 1558.8 ± 5.2 | – | –
343.15 K | 1182.19 ± 7.6 | 1.46725 ± 0.0011 | 1546.3 ± 5.2 | – | 29.99 ± 0.8
